Data: PubChem BioAssay (NCI)
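Where inhibition never reached the appropriate level, the endpoint shown equals the highest concentration tested. Otherwise, values were interpolated linearly from a five-concentration, 48-hour dose response in 96-well plates. The concentration for 50% growth inhibition is given as GI50. At the TGI there is no net growth.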

Assays:
Test in all cases: DTP human tumour cell line panel, 48 h
IGROV1 ovarian = tested on: IGROV1 ovarian
786-0 renal = tested on: 786-0 renal
SN12C renal = tested on: SN12C renal
SK-OV-3 ovarian = tested on: SK-OV-3 ovarian
NCI-H522 lung = tested on: NCI-H522 lung
SK-MEL-2 melanoma = tested on: SK-MEL-2 melanoma
SNB-75 CNS = tested on: SNB-75 CNS
NCI-H460 lung = tested on: NCI-H460 lung
HS 578T breast = tested on: HS 578T breast
HOP-62 NSCLC = tested on: HOP-62 NSCLC
M14 melanoma = tested on: M14 melanoma
A549 NSCLC = tested on: A549 NSCLC
UACC-62 melanoma = tested on: UACC-62 melanoma
OVCAR-3 ovarian = tested on: OVCAR-3 ovarian
DU-145 prostate = tested on: DU-145 prostate
OVCAR-8 ovarian = tested on: OVCAR-8 ovarian
SW-620 colon = tested on: SW-620 colon
EKVX NSCLC = tested on: EKVX NSCLC
UACC-257 melanoma = tested on: UACC-257 melanoma
PC-3 prostate = tested on: PC-3 prostate
MDA-N = tested on: MDA-N
LOX IMVI melanoma = tested on: LOX IMVI melanoma
HOP-92 NSCLC = tested on: HOP-92 NSCLC
ACHN renal = tested on: ACHN renal
COLO 205 colon = tested on: COLO 205 colon
HT29 colon = tested on: HT29 colon
SK-MEL-5 melanoma = tested on: SK-MEL-5 melanoma
NCI/ADR-RES ovarian = tested on: NCI/ADR-RES ovarian
SF-268 CNS = tested on: SF-268 CNS
T-47D breast = tested on: T-47D breast
HCT-15 colon = tested on: HCT-15 colon
MALME-3M melanoma = tested on: MALME-3M melanoma
HCT-116 colon = tested on: HCT-116 colon
SF-295 CNS = tested on: SF-295 CNS
MDA-MB-231 breast = tested on: MDA-MB-231 breast
OVCAR-4 ovarian = tested on: OVCAR-4 ovarian
K-562 leukemia = tested on: K-562 leukemia
SK-MEL-28 melanoma = tested on: SK-MEL-28 melanoma
BT-549 breast = tested on: BT-549 breast
A498 renal = tested on: A498 renal
NCI-H23 lung = tested on: NCI-H23 lung
MDA-MB-435 = tested on: MDA-MB-435
CCRF-CEM leukemia = tested on: CCRF-CEM leukemia
HL-60(TB) leukemia = tested on: HL-60(TB) leukemia
SF-539 CNS = tested on: SF-539 CNS
CAKI-1 renal = tested on: CAKI-1 renal
RPMI-8226 leukemia = tested on: RPMI-8226 leukemia
UO-31 renal = tested on: UO-31 renal
KM12 colon = tested on: KM12 colon
TK-10 renal = tested on: TK-10 renal
HCC-2998 colon = tested on: HCC-2998 colon
NCI-H226 lung = tested on: NCI-H226 lung
OVCAR-5 ovarian = tested on: OVCAR-5 ovarian
SR leukemia = tested on: SR leukemia
U251 CNS = tested on: U251 CNS
MOLT-4 leukemia = tested on: MOLT-4 leukemia
MCF7 breast = tested on: MCF7 breast
SNB-19 CNS = tested on: SNB-19 CNS
RXF 393 renal = tested on: RXF 393 renal

With `CC1(C)OC2C(COC(c3ccccc3)(c3ccccc3)c3ccccc3)OC(c3c[nH]c4c(N)ncnc34)C2O1` (configuration not stated) the TGI (IGROV1 ovarian) was 17 µM, the TGI (786-0 renal) was 4.37 µM and the TGI (SN12C renal) was 15.4 µM. For the same compound, the TGI (SK-OV-3 ovarian) was 17.5 µM, the TGI (NCI-H522 lung) was 17.8 µM and the TGI (SK-MEL-2 melanoma) was 29.3 µM. The TGI (SNB-75 CNS) was 19.6 µM, the TGI (NCI-H460 lung) was 10.5 µM and the TGI (HS 578T breast) was 28.4 µM. The TGI (HOP-62 NSCLC) was 16.1 µM, the TGI (M14 melanoma) was 9.44 µM and the TGI (A549 NSCLC) was 13.9 µM. The TGI (UACC-62 melanoma) was 4.21 µM, the TGI (OVCAR-3 ovarian) was 9.26 µM and the TGI (DU-145 prostate) was 18.9 µM. It also gave a TGI (OVCAR-8 ovarian) of 21.7 µM, a TGI (SW-620 colon) of 14.1 µM and a TGI (EKVX NSCLC) of 21.8 µM. The TGI (UACC-257 melanoma) was 17.5 µM, the TGI (PC-3 prostate) was 10.5 µM and the TGI (MDA-N) was 11 µM. For the same compound, the TGI (LOX IMVI melanoma) was 3.26 µM, the TGI (HOP-92 NSCLC) was 18.5 µM and the TGI (ACHN renal) was 13.3 µM. For the same compound, the TGI (COLO 205 colon) was 23.9 µM, the TGI (HT29 colon) was 7.15 µM and the TGI (SK-MEL-5 melanoma) was 3.05 µM. It also gave a TGI (NCI/ADR-RES ovarian) of 29 µM, a TGI (SF-268 CNS) of 21.4 µM and a TGI (T-47D breast) of 17.2 µM. For the same compound, the TGI (HCT-15 colon) was 15.2 µM, the TGI (MALME-3M melanoma) was 16.8 µM and the TGI (HCT-116 colon) was 15.9 µM. For the same compound, the TGI (SF-295 CNS) was 7.29 µM, the TGI (MDA-MB-231 breast) was 27.4 µM and the TGI (OVCAR-4 ovarian) was 23.3 µM.
In the case of `CCOC(=O)C1=CCCC[C@H]1S(=O)(=O)Nc1ccc(F)cc1Cl`, the GI50 (IGROV1 ovarian) is reported as 31 µM, the TGI (IGROV1 ovarian) is reported as over 100 µM and the GI50 (786-0 renal) is reported as 32.9 µM. It also gave a TGI (786-0 renal) of over 100 µM, a GI50 (K-562 leukemia) of 26.4 µM and a TGI (K-562 leukemia) of over 100 µM. For the same compound, the GI50 (SN12C renal) was 24.5 µM, the TGI (SN12C renal) was 94.5 µM and the GI50 (SK-OV-3 ovarian) was 47.6 µM. The TGI (SK-OV-3 ovarian) was over 100 µM, the GI50 (NCI-H522 lung) was 23.1 µM and the TGI (NCI-H522 lung) was 90.1 µM. The GI50 (SK-MEL-2 melanoma) was 21 µM, the TGI (SK-MEL-2 melanoma) was 83.8 µM and the GI50 (SK-MEL-28 melanoma) was 28 µM. For the same compound, the TGI (SK-MEL-28 melanoma) was over 100 µM, the GI50 (BT-549 breast) was 19.6 µM and the TGI (BT-549 breast) was 61 µM. For the same compound, the GI50 (SNB-75 CNS) was 25.1 µM, the TGI (SNB-75 CNS) was over 100 µM and the GI50 (A498 renal) was 42.6 µM. It also gave a TGI (A498 renal) of over 100 µM, a GI50 (NCI-H23 lung) of 26.6 µM and a TGI (NCI-H23 lung) of over 100 µM. For the same compound, the GI50 (NCI-H460 lung) was 22.4 µM, the TGI (NCI-H460 lung) was 82.1 µM and the GI50 (MDA-MB-435) was 21.1 µM. For the same compound, the TGI (MDA-MB-435) was 69.9 µM, the GI50 (HS 578T breast) was 20.3 µM and the TGI (HS 578T breast) was 89.3 µM. For the same compound, the GI50 (HOP-62 NSCLC) was 25.5 µM, the TGI (HOP-62 NSCLC) was over 100 µM and the GI50 (M14 melanoma) was 25.5 µM. It also gave a TGI (M14 melanoma) of 96.7 µM, a GI50 (CCRF-CEM leukemia) of 21.4 µM and a TGI (CCRF-CEM leukemia) of 84.9 µM. It also gave a GI50 (A549 NSCLC) of 35.4 µM, a TGI (A549 NSCLC) of over 100 µM and a GI50 (HL-60(TB) leukemia) of 15.7 µM. For the same compound, the TGI (HL-60(TB) leukemia) was 47.9 µM, the GI50 (UACC-62 melanoma) was 19.1 µM and the TGI (UACC-62 melanoma) was 72.7 µM. It also gave a GI50 (OVCAR-3 ovarian) of 23.2 µM, a TGI (OVCAR-3 ovarian) of 77.3 µM and a GI50 (DU-145 prostate) of 25.4 µM. It also gave a TGI (DU-145 prostate) of over 100 µM, a GI50 (OVCAR-8 ovarian) of 27.9 µM and a TGI (OVCAR-8 ovarian) of over 100 µM. The GI50 (SF-539 CNS) was 22.8 µM, the TGI (SF-539 CNS) was 55.2 µM and the GI50 (SW-620 colon) was 30 µM. It also gave a TGI (SW-620 colon) of over 100 µM, a GI50 (CAKI-1 renal) of 31.5 µM and a TGI (CAKI-1 renal) of over 100 µM. It also gave a GI50 (EKVX NSCLC) of 26.8 µM, a TGI (EKVX NSCLC) of over 100 µM and a GI50 (RPMI-8226 leukemia) of 20.5 µM. For the same compound, the TGI (RPMI-8226 leukemia) was 67.6 µM, the GI50 (UACC-257 melanoma) was 35.8 µM and the TGI (UACC-257 melanoma) was over 100 µM. The GI50 (PC-3 prostate) was 34 µM, the TGI (PC-3 prostate) was over 100 µM and the GI50 (UO-31 renal) was 20.8 µM. The TGI (UO-31 renal) was over 100 µM, the GI50 (KM12 colon) was 27.1 µM and the TGI (KM12 colon) was over 100 µM. It also gave a GI50 (LOX IMVI melanoma) of 22.7 µM, a TGI (LOX IMVI melanoma) of over 100 µM and a GI50 (TK-10 renal) of 33 µM. The TGI (TK-10 renal) was over 100 µM, the GI50 (HOP-92 NSCLC) was 15.1 µM and the TGI (HOP-92 NSCLC) was 58.3 µM. For the same compound, the GI50 (ACHN renal) was 29 µM, the TGI (ACHN renal) was over 100 µM and the GI50 (COLO 205 colon) was 38.2 µM. For the same compound, the TGI (COLO 205 colon) was over 100 µM, the GI50 (HT29 colon) was 41.1 µM and the TGI (HT29 colon) was over 100 µM. The GI50 (SK-MEL-5 melanoma) was 10.5 µM, the TGI (SK-MEL-5 melanoma) was 24.5 µM and the GI50 (NCI/ADR-RES ovarian) was 33.9 µM. It also gave a TGI (NCI/ADR-RES ovarian) of over 100 µM, a GI50 (SF-268 CNS) of 24.6 µM and a TGI (SF-268 CNS) of over 100 µM. For the same compound, the GI50 (HCC-2998 colon) was 31.2 µM, the TGI (HCC-2998 colon) was over 100 µM and the GI50 (NCI-H226 lung) was 26.7 µM. For the same compound, the TGI (NCI-H226 lung) was over 100 µM, the GI50 (T-47D breast) was 16.6 µM and the TGI (T-47D breast) was over 100 µM. It also gave a GI50 (HCT-15 colon) of 20.3 µM, a TGI (HCT-15 colon) of over 100 µM and a GI50 (OVCAR-5 ovarian) of 25 µM. For the same compound, the TGI (OVCAR-5 ovarian) was 77.1 µM, the GI50 (SR leukemia) was 23.9 µM and the TGI (SR leukemia) was over 100 µM. The GI50 (MALME-3M melanoma) was 24.4 µM, the TGI (MALME-3M melanoma) was 85.2 µM and the GI50 (U251 CNS) was 24.7 µM. It also gave a TGI (U251 CNS) of over 100 µM, a GI50 (MOLT-4 leukemia) of 27.3 µM and a TGI (MOLT-4 leukemia) of 92.2 µM. It also gave a GI50 (MCF7 breast) of 19.9 µM, a TGI (MCF7 breast) of over 100 µM and a GI50 (HCT-116 colon) of 25 µM. For the same compound, the TGI (HCT-116 colon) was 95.3 µM, the GI50 (SNB-19 CNS) was 29.4 µM and the TGI (SNB-19 CNS) was over 100 µM. The GI50 (SF-295 CNS) was 32.7 µM, the TGI (SF-295 CNS) was over 100 µM and the GI50 (MDA-MB-231 breast) was 28.4 µM. For the same compound, the TGI (MDA-MB-231 breast) was 98.6 µM, the GI50 (OVCAR-4 ovarian) was 31.2 µM and the TGI (OVCAR-4 ovarian) was over 100 µM. The GI50 (RXF 393 renal) was 13.2 µM and the TGI (RXF 393 renal) was 61.9 µM.
